Measured values reported in a melting point compilation (Tetko et al.; mined from patent text by program, amines drawn as free bases though some values may be those of a salt).

First: CCCCCCCCCCC1CN(C)C(=O)N(O)C1 (configuration not stated)
Second: CCCCCCCCCCCCCCCCCC(=O)NCC(C)(C)COC(=O)CCCCCCCCCCCCCCCCC
The melting point of the first is higher: 63 to 64.5 °C for the first, 60 to 62 °C for the second.

Compared with `CC(C)(C)c1cc(N2C(=O)c3ccccc3C2=O)cc(C(C)(C)C)c1O`, `O=C1c2ccc(Cl)cc2C(=O)N1c1ccccc1` is lower in melting point: 196 to 201 °C for the first, 187 to 189 °C for the second.

First: O=S1CCN(c2nc(N3CCOCC3)nc(-n3c(C(F)F)nc4ccccc43)n2)CC1
Second: Cc1nc(NCCN2CCOCC2)c2nc(-c3ccccc3)cc-2[nH]1
The melting point of the first is lower: 225 to 226 °C for the first, greater than 280 °C for the second.

First: N#Cc1ccc(C2(Cc3ccccc3)C(=O)N(CC3CC3)Cc3cncn32)cc1 (configuration not stated)
Second: N#CCCn1nc(-c2ccc(OCc3ccccc3)cc2)sc1=O
The melting point of the first is higher: 156 to 158 °C for the first, 135 °C for the second.

First: CC12CCC3c4ccc(O)cc4C(=O)C(Sc4ccc(O)cc4)C3C1CCC2O (configuration not stated)
Second: Oc1ccc2c(c1)OCC(c1ccc(F)cc1)C2c1ccc(OCCN2CCCC2)cc1 (configuration not stated)
The melting point of the first is lower: 120 to 124 °C for the first, 164 to 167 °C for the second.

First: O=C(Nc1cc(C(=O)NCCc2ccccc2)ccc1O)C(=O)Nc1cc(Cl)cc(Cl)c1O
Second: N#Cc1n[nH]cc1-c1ccc(Cl)cc1C(=O)c1ccccc1Cl
The melting point of the first is higher: 265 °C for the first, 183 to 184 °C for the second.

First: COCOc1cc(Cl)c(Br)cc1C(=O)c1ncccc1OCOC
Second: COc1cccc(OC)c1C(=O)Nc1ccc(OCCN2CCCC2)cc1
The melting point of the first is lower: 70 to 72 °C for the first, 136 to 140 °C for the second.

First: CCCc1cn(Cc2ccc(C(=O)OC)cc2OC)c2cc(C=C(C)C(=O)O)ccc12
Second: CCCNC(=O)C(C)Cc1ccc2c(c1)c(Cc1ccc(C(=O)O)cc1OC)cn2CCC (single isomer, unassigned; (-))
The melting point of the first is higher: 167 to 169 °C for the first, 85 to 93 °C for the second.

First: N#CC1C(=O)NC(=O)C(C#N)C12CCCCC2 (configuration not stated)
Second: COCCc1nc2c(N)nc3ccccc3c2n1CC1(O)CCCCC1
The melting point of the first is higher: 202 to 210 °C for the first, 189 to 191 °C for the second.

Compared with `C=Cc1ccnc(-c2cc(C)ccn2)c1`, `O=Cc1ccc(/C=C/c2ccncc2)nc1` is higher in melting point: 82 to 86 °C for the first, 131 to 136 °C for the second.

First: CCOP(=O)(CC(=O)NNc1nc2ccc(C(F)(F)F)cc2n(OCc2ccccc2)c1=O)OCC
Second: Cc1c(C(=O)NCc2ccccc2)nc(-n2ccc(OCc3ccccc3)cc2=O)n1C
The melting point of the first is lower: 163 to 166 °C for the first, 190 to 191 °C for the second.

First: COC(=O)C(=O)c1ccc(OCCOc2ccc3ccccc3c2)cc1
Second: Cc1oc(-c2ccccc2)nc1CCOc1ccc(CC(C)(C)C(=O)NS(C)(=O)=O)cc1
The melting point of the first is higher: 155 to 157 °C for the first, 112 to 113 °C for the second.

First: CCS(=O)(=O)N[C@H](C(=O)NCCc1cc(Br)c(O)c(OC)c1)C(C)C
Second: CCC(=O)NC(C)(C(=O)NS(=O)(=O)c1ccc(C)cc1)C(C)C (configuration not stated)
The melting point of the first is lower: 145 to 147 °C for the first, 166 to 168 °C for the second.

First: CCC(=CC(CNC(=O)c1cccnc1)=NO)C(C(C)C)[N+](=O)[O-] (configuration not stated)
Second: COC(=O)CCCCCc1nn(-c2ccc([N+](=O)[O-])cc2)c2c1CCCC2
The melting point of the first is higher: 141 to 142 °C for the first, 60 to 61 °C for the second.

Compared with `CSc1ccc2ccc(Br)cc2c1`, `Cc1cc2ncn(Cc3ccc(N)cc3)c2cc1C` is higher in melting point: 80 to 81 °C for the first, 238 to 239 °C for the second.

First: O=C1NCN(c2ccc(Cl)cc2)C12CCN(Cc1ccnc(-c3ccc(Cl)cc3)c1)CC2
Second: NS(=O)(=O)c1ccc(CCN2CC=C(c3c[nH]c(-c4ccc(F)cc4)c3-c3ccncc3)CC2)cc1
The melting point of the first is higher: 223 to 225 °C for the first, 220 to 221 °C for the second.

First: COc1cccc(CN2Cc3cc(OC)c(O)cc3CC2C)c1 (configuration not stated)
Second: COc1ccc(-c2cc(O)n3nccc3n2)cc1OC
The melting point of the first is lower: 100 to 105 °C for the first, 268 to 270 °C for the second.

Compared with `Nc1c(N=O)c(=O)[nH]c(=O)n1Cc1ccc(Cl)cc1`, `Cn1c(=O)n(Cc2ccccc2)c2cc(Cn3ccnc3)ccc21` is lower in melting point: greater than 320 °C for the first, 129 °C for the second.

`COc1ccc2[nH]c(C(C)C)c(C=O)c2c1` and `COc1ccc(CNC(=O)c2cc3c(=O)n(CC#N)c(=O)n(C)c3s2)cc1` cannot be ordered by melting point: 181 to 183 °C for the first, 180 to 183 °C for the second.

First: O=CC(=Cc1cccc(OCc2ccc(Cl)cc2)c1)C(C=O)=Cc1cccc(OCc2ccc(Cl)cc2)c1
Second: Cc1c(-c2ccc(OCc3ccccc3)cc2)n(Cc2ccc(OCCBr)cc2)c2ccc(OCc3ccccc3)cc12
The melting point of the first is higher: 193 to 194 °C for the first, 131 to 134 °C for the second.

First: O=C(O)c1cncc(OCc2ccccc2)n1
Second: CCOC(=O)c1cc(NC(=O)C(N)Cc2ccccc2)c[nH]1 (configuration not stated)
The melting point of the first is higher: 160 to 162 °C for the first, 139 to 142 °C for the second.

First: O=C1CCC(N2C(=O)c3ccc(CNC(=O)C4CC4)cc3C2=O)C(=O)N1 (configuration not stated)
Second: O=C1c2ccc(N3CCCC3)c3cc([N+](=O)[O-])cc(c23)C(=O)N1O
The melting point of the first is lower: 163 to 165 °C for the first, 290 to 291 °C for the second.

Compared with `CC(=O)N(C)C1Cc2ccc(C(=O)Cn3cnc4cc(-c5ccc(Cl)cc5)sc4c3=O)cc2C1` (configuration not stated), `Cc1nc(-c2ccc(C(C)(C)C)cc2)sc1C(=O)N[C@H](C)[C@](O)(Cn1cncn1)c1ccc(F)cc1F` is lower in melting point: 276 °C for the first, 85 to 91 °C for the second.

First: COc1ccc(C2=NOC3(CCOC3=O)C2)cc1OC1CCCC1 (configuration not stated)
Second: COC(=O)c1ccccc1NC(=O)CN1CCN(C(=O)c2ccc(OC)c(OC)c2)CC1
The melting point of the first is lower: 152 to 153 °C for the first, 168 to 169 °C for the second.

First: CC(C)CC(=O)Nc1ccc(-c2ccnc3c(C(=O)c4cccs4)cnn23)s1
Second: NC(=O)Cc1c(-c2ccccc2)nn2cccnc12
The melting point of the first is higher: 268 to 270 °C for the first, 217 to 219 °C for the second.

First: CC(=O)C(C(C)=O)c1ccccc1
Second: CC(c1ccccc1)c1ccc(N)c([N+](=O)[O-])c1 (configuration not stated)
The melting point of the first is lower: 40 to 52 °C for the first, 96 to 98 °C for the second.

First: COc1cc(C2=C(c3cn(CCCNC(=O)C(CC(C)C)NC(=O)OC(C)(C)C)c4ccccc34)C(=O)NC2=O)cc(OC)c1OC (configuration not stated)
Second: COc1cc(C2=C(c3c(-c4ccccc4)[nH]c4ccccc34)C(=O)NC2=O)cc(OC)c1OC
The melting point of the first is lower: 140 to 142 °C for the first, 304 °C for the second.

First: Cc1cccnc1C1CC(C)(C)Oc2ccccc21 (configuration not stated)
Second: O=[N+]([O-])c1c(CBr)cccc1Oc1ccccc1Cl
The melting point of the first is higher: 100 to 102 °C for the first, 68 to 70 °C for the second.

First: O=c1cc(CO)oc(CO)c1O
Second: CC(C)COc1cc(O)c2c(c1)OC(C)(C)CC2=O
The melting point of the first is higher: 160 to 161 °C for the first, 77 to 79 °C for the second.

First: N#CC(c1ccccc1)(c1ccccc1)[C@H]1CCCN(CCc2ccc3c(c2)CCC3)C1
Second: Nc1ccccc1OCCCN1CCC(OC(c2ccccc2)c2ccccc2)CC1
The melting point of the first is higher: 88 to 91 °C for the first, 86 to 88 °C for the second.

`CN(Cc1cc(C(F)(F)F)cc(C(F)(F)F)c1)C1CCN(c2ccc(OC[C@@]3(C)Cn4cc([N+](=O)[O-])nc4O3)cc2)CC1` and `CS(=O)(=O)c1ccc(-c2cc(-n3ccc(C(F)(F)F)n3)c3ccccc3n2)cc1` cannot be ordered by melting point: 194 to 195 °C for the first, 194 to 196 °C for the second.

Compared with `C[C@H]1CN(c2c(F)cc3c(=O)c(C(=O)O)cn(CCF)c3c2Cl)C[C@H]1N` (relative stereo), `CCc1nn(-c2ccccn2)c2nc3cc(F)c(F)cc3c(Cl)c12` is lower in melting point: 234 to 236 °C for the first, 160 to 161 °C for the second.

Compared with `O=C(O)C(Cc1ccc2c(c1)OCO2)Cc1ccc2c(c1)OCO2`, `CCc1nc2c(C)cc(C)nc2n1Cc1ccc(C(Cc2ccccc2)C(C(=O)O)C(=O)O)cc1` (configuration not stated) is lower in melting point: 191 to 193 °C for the first, 127 to 128 °C for the second.

Compared with `O=C(CCC1CCCC1)Nc1ccc(NC(=O)CCC2CCCC2)c2c1C(=O)c1ccccc1C2=O`, `Cc1cc(=O)oc2cc(NC(=O)C3C(=O)c4ccccc4S(=O)(=O)N3C)ccc12` (configuration not stated) is higher in melting point: 166 to 167 °C for the first, greater than 285 °C for the second.

Compared with `O=C(NC1CCOCC1)NC12CC3CC(CC(C3)C1)C2`, `CC(=O)N1CCO[C@@H]2c3ccccc3OCC[C@H]21` (relative stereo) is lower in melting point: 239 to 242 °C for the first, 97 to 98 °C for the second.

First: CC(CNS(C)(=O)=O)n1nnc2cc3c(=O)n(C4CC4)nnc3cc2c1=O (configuration not stated)
Second: CN1CCC(Sc2cc3c(cc2Cl)[nH]c(=O)n3C)CC1
The melting point of the first is lower: 195 to 197 °C for the first, 210 to 212 °C for the second.

First: O=C(COc1ccc(Cl)cc1Cl)OCNC(=O)Oc1cccc(Cl)c1
Second: C=CCOC(=O)NS(=O)(=O)CCc1cc(OCCCC)nn1Cc1ccc(Cl)cc1Cl
The melting point of the first is higher: 110 °C for the first, 94 to 95 °C for the second.

Compared with `NCC1Cc2cc(-c3ccccc3)cc(-c3ccccc3)c2O1` (configuration not stated), `CCOC(=O)c1ccc(-c2nn(Cc3ccccc3)c3ccccc23)o1` is lower in melting point: greater than 250 °C for the first, 98 to 99 °C for the second.

First: O=[N+]([O-])c1ccc(CCc2nccs2)cc1
Second: CC(=O)c1ccc(CNS(=O)(=O)c2ccc(C)cc2)cc1
The melting point of the first is lower: 92 to 93 °C for the first, 125 to 128 °C for the second.

First: Cn1c(C(F)(F)F)c(I)c(=O)n(C)c1=O
Second: CCOC(=O)c1c(C(F)(F)F)nc(C(F)F)c(C(=O)OC)c1NC(C)C
The melting point of the first is higher: 149 to 151 °C for the first, 53 to 55 °C for the second.

First: COc1cc2c(Nc3cc(OC)c(Cl)cc3Cl)c(C#N)cnc2cc1F
Second: N#Cc1cnc2sc(-c3ccccc3)cc2c1Cl
The melting point of the first is higher: 219 to 221 °C for the first, 202 to 204 °C for the second.

First: O=C(O)CC1(c2ccc(Cl)c(Cl)c2)CCC(=O)NC1=O (configuration not stated)
Second: Nc1nc(Cl)c(Cl)c(NCC2(CO)CCC2)n1
The melting point of the first is higher: 203 °C for the first, 179 to 181 °C for the second.

First: O=C1c2ccccc2CN1CCN1CCC(Cc2c[nH]c3ccc(F)cc23)CC1
Second: OC1(c2ccc(F)cc2)CCN(CCCc2noc3cc(F)ccc23)CC1
The melting point of the first is higher: 175 °C for the first, 100 to 101 °C for the second.

Compared with `FC(F)(F)c1[nH]c(-c2cccc(Cl)c2)nc1Br`, `NC(=O)c1nnn(Cc2ccccc2Br)c1N` is higher in melting point: 137 to 144 °C for the first, 211 to 213 °C for the second.

Compared with `Cc1ccc(N=C(Nc2ccc(C)cc2)ON2C(C)(C)CC(OC(=O)c3ccccc3)CC2(C)C)cc1`, `COC(=O)[C@H](Cc1ccc(NC(=O)c2c(Cl)cccc2Cl)cc1)NC(=O)c1ccc(-n2nnnc2NCc2cccc(O)c2)cc1Cl` is higher in melting point: 124 to 128 °C for the first, 155 to 158 °C for the second.

First: COC(=O)C1OC(OC(=O)C(C)C)C(OC(=O)C(C)C)C(OC(=O)C(C)C)C1OC(=O)C(C)C (configuration not stated)
Second: CC(C)c1cc(O)cc(C(C)C)c1
The melting point of the first is higher: 127 °C for the first, 51 to 52 °C for the second.

Compared with `N#Cc1cc(-c2ccoc2)c2ccc(COc3cc(F)cc(-c4cc(F)cc(F)c4)c3)cc2n1`, `CC(C)NCC(O)COc1ccc2c(=O)cc(-c3cc(OCc4ccccc4)cc(OCc4ccccc4)c3)oc2c1` (configuration not stated) is lower in melting point: 189 to 192 °C for the first, 173 to 174 °C for the second.

First: CS(=O)(=O)c1ccc(N)c(C#N)c1
Second: CCOCCS(=O)(=O)c1c(Cl)nc(Cl)nc1Cl
The melting point of the first is higher: 155 to 157 °C for the first, 133 to 134 °C for the second.

In the case of `CCC(CC)c1ccc(C(=O)OC)c2nc(Oc3c(C)cc(Cl)cc3Cl)n(C)c12`, the melting point is reported as 177 to 178 °C.
